Assay results: patent publication US9480754B2, “Phospholipid ether analogs as cancer-targeting drug vehicles” (Cellectar Biosciences, Inc., priority 2014, dated 2016)

Legend:
Neuroblastoma SK-N-AS = assay: 124I-CLR1404 tumor uptake, model 14; format: in vivo; conditions: Nude mouse
Protocol: (§1) All described animal studies were performed according to animal protocols approved by the Institutional Animal Care and Use Committee. Female athymic nude mice (Hsd:Athymic Nude-Foxnlnu or Crl:NU-Foxnlnu, Charles River Laboratories) about 4 to 5 weeks of age, 16 to 18 g (n=6), were used for human tumor xenograft studies. Mice were anesthetized with isoflurane and injected subcutaneously with viable tumor cells in 100 μl of Dulbecco's PBS (or, for glioma cells, […] of PBS) into the right flank. Inoculum sizes were 1×10^6 (for renal, ovarian, glioma, pancreatic, prostate, and NSCLC models), […] (for colorectal and uterine models), or 3×10^6 (breast).
(§2) Radioiodinated ^124I-CLR1404 was tested in subcutaneous and orthotopic xenografts of 60 different spontaneous, transgenic, human, and rodent malignant cell lines and tumor types. […] Representative examples are of both human (FIG. 5A-5I) and rodent (FIG. 5J-M) tumors.

Colon-51 = assay: 124I-CLR1404 tumor uptake, model 6; format: in vivo; conditions: SCID mouse, Adenocarcinoma
Protocol: as §1, §2

Bladder SV40 = assay: 124I-CLR1404 tumor uptake, model 36; format: in vivo; conditions: Mouse (orthotopic), Adenocarcinoma
Protocol: as §1, §2

Prostate MatLyLu = assay: 124I-CLR1404 tumor uptake, model 37; format: in vivo; conditions: Rat, Adenocarcinoma
Protocol: as §1, §2

Glioma C6 = assay: 124I-CLR1404 tumor uptake, model 48; format: in vivo; conditions: Rat xenograft
Protocol: as §1, §2

Head and neck SCC1 = assay: 124I-CLR1404 tumor uptake, model 26; format: in vivo; conditions: Nude mouse, Squamous cell carcinoma
Protocol: as §1, §2

[1] = system: xenograft, orthotopic and transgenic cancer and cancer stem cell derived animal models; assay: CLR1404 tumor selectivity across 60 tumor models; format: in vivo, rodent; conditions: 60 different malignant cell lines and tumor types
Protocol: as §1, §2

Ovarian Ovcar-3 = assay: 124I-CLR1404 tumor uptake, model 19; format: in vivo; conditions: Nude mouse, Adenocarcinoma
Protocol: as §1, §2

Pancreatic Capan-1 = assay: 124I-CLR1404 tumor uptake, model 22; format: in vivo; conditions: Nude mouse, Adenocarcinoma
Protocol: as §1, §2

Prostate LNCap = assay: 124I-CLR1404 tumor uptake, model 28; format: in vivo; conditions: Mouse, Adenocarcinoma
Protocol: as §1, §2

Prostate PC-3 = assay: 124I-CLR1404 tumor uptake, model 1; format: in vivo; conditions: SCID mouse, Adenocarcinoma
Protocol: as §1, §2

Mammary AC = assay: 124I-CLR1404 tumor uptake, model 45; format: in vivo; conditions: ApcMin/+ mouse, Adenocarcinoma
Protocol: as §1, §2

Head and neck SCC6 = assay: 124I-CLR1404 tumor uptake, model 27; format: in vivo; conditions: Nude mouse, Squamous cell carcinoma
Protocol: as §1, §2

Glioma CNS1 = assay: 124I-CLR1404 tumor uptake, model 49; format: in vivo; conditions: Rat xenograft
Protocol: as §1, §2

Adrenal RL-251 = assay: 124I-CLR1404 tumor uptake, model 5; format: in vivo; conditions: SCID mouse, Adenocarcinoma
Protocol: as §1, §2

Min mouse intestinal = assay: 124I-CLR1404 tumor uptake, model 42; format: in vivo; conditions: Endogenous mouse, Adenocarcinoma
Protocol: as §1, §2

With C[N+](C)(C)CCOP(=O)([O-])OCCCCCCCCCCCCCCCCCCc1ccc(I)cc1 [^124I-CLR1404] the Uptake (Neuroblastoma SK-N-AS) was “Yes (Tumor uptake was considered positive if tumor to muscle ratio was greater than 3.)”, the Uptake (Colon-51) was “Yes (Tumor uptake was considered positive if tumor to muscle ratio was greater than 3.)” and the Uptake (Bladder SV40) was “Yes (Tumor uptake was considered positive if tumor to muscle ratio was greater than 3.)”. The Uptake (Prostate MatLyLu) was “Yes (Tumor uptake was considered positive if tumor to muscle ratio was greater than 3.)”, the Uptake (Glioma C6) was “Yes (Tumor uptake was considered positive if tumor to muscle ratio was greater than 3.)” and the Uptake (Head and neck SCC1) was “Yes (Tumor uptake was considered positive if tumor to muscle ratio was greater than 3.)”. For the same compound, the “tumor localization after intravenous administration” value [1] was “localized in almost all primary and metastatic malignant tumors”, the Uptake (Ovarian Ovcar-3) was “Yes (Tumor uptake was considered positive if tumor to muscle ratio was greater than 3.)” and the Uptake (Pancreatic Capan-1) was “Yes (Tumor uptake was considered positive if tumor to muscle ratio was greater than 3.)”. For the same compound, the Uptake (Prostate LNCap) was “Yes (Tumor uptake was considered positive if tumor to muscle ratio was greater than 3.)”, the Uptake (Prostate PC-3) was “Yes (Tumor uptake was considered positive if tumor to muscle ratio was greater than 3.)” and the Uptake (Mammary AC) was “Yes (Tumor uptake was considered positive if tumor to muscle ratio was greater than 3.)”. The Uptake (Head and neck SCC6) was “Yes (Tumor uptake was considered positive if tumor to muscle ratio was greater than 3.)”, the Uptake (Glioma CNS1) was “Yes (Tumor uptake was considered positive if tumor to muscle ratio was greater than 3.)” and the Uptake (Adrenal RL-251) was “Yes (Tumor uptake was considered positive if tumor to muscle ratio was greater than 3.)”. For the same compound, the Uptake (Min mouse intestinal) was “Yes (Tumor uptake was considered positive if tumor to muscle ratio was greater than 3.)”.
